“Also recorded” adds a separate entry of the source.
Legend:
MCF-7 cells [1] = experiment: Cell proliferation (MTS) analysis, MCF-7; assay type: cell-based, human; conditions: MCF-7, 48 hours after PAA treatment
Description: (§1) (FIGS. 1A, B and C) show chemical structures of PAA and viability of MCF-7 and MDA-MB-231 cells depending on PAA. MCF-7 and MDA-MB-231 cells were treated with increasing concentrations of PAA for 48 hours. Anti-proliferation effects of PAA were measured by MTS analysis.
(§2) Proliferation rates of MCF-7 and MDA-MB-231 cells were measured using a CellTiter 96® aqueous one solution cell proliferation kit. MCF-7 and MDA-MB-231 cells were cultured in the presence of PAA (0.1, 0.2, 0.5, 1 and 2 mM) on a 96-well plate for 48 hours. In accordance with the manufacturer's protocol, absorbance at 490 nm was determined using a 96-well plate reader (Dynex Revelation, Dynex Ltd., Billingshurst, UK). All data was determined by measurement of three sets.
(§3) In order to investigate anti-proliferation effects of PAA in human breast cancer cell lines, i.e., MCF-7 and MDA-MB-231, the cancer cell lines were treated with different concentrations of PAA and then MTS analysis was conducted.

MDA-MB-231 cells [2] = experiment: Cell proliferation (MTS) analysis, MDA-MB-231; assay type: cell-based, human; conditions: MDA-MB-231, 48 hours after PAA treatment
Description: as §1, §2, §3

MDA-MB-231 cells [3] = experiment: Scratch migration assay; assay type: cell-based, human
Description: Scratch curing of MDA-MB-231 cells was imaged at […] with or without PAA treatment;
MDA-MB-231 cells were seeded on a 6-well plate to grow cells until confluence reached 90%. Scratch was created on the cell layer using a sterilized white micro-pipette tip. After washing with DMEM medium, breast cancer cells were treated with PAA or DMSO. 16 hours later, the scratch region was imaged with a 10× optical microscope.

MCF-7 cells [4] = experiment: Xenograft tumor model; assay type: in vivo, NOD-SCID (BALB/cSIc (nu/nu)) female nude mice
Description: FIGS. 3A, 3B and 3C show effects of PAA on tumor growth in xenograft tumor models. 3 million cells were injected into breast fat pads of NOD-SCID female nude mice;
The dose of used drug is 10 mg/kg. 9 weeks later, the image was captured with Odyssey® image (LICOR, Pearl image system, USA). Using an IRDye 800 CW optical probe (2DG), a high grade of tumor was used to detect breast tumors at a channel of 800 nm and was represented by pseudo-color;
A tumor growth curve was monitored during the test period;
Tumor volume was measured after initiation of treatment. * means p<0.05, as compared to control group. A representative image was captured at the end of 9 weeks of treatment. Results are shown as a vehicle-treated control group, a PAA-treated mouse and a Dox-treated mouse;
24 NOD-SCID (BALB/cSIc (nu/nu)) female nude mice in total were divided into four groups producing breast cancer cells. Six mice as a negative control group were not subjected to chemotherapy. However, the volumes of tumors of control group mice were measured every three days using the Equation of (width^2×length)/2 (FIG. 3). PAA was administered at the optimal dose of 10 to 50 mg/kg to six other nude mice via breast fat pad injection. In addition, doxorubicin (Dox) was administered daily in a low dose of 10 mg/kg to other six nude mice as a positive control group via breast fat pad injection. The last group was used as a non-tumor group without treatment.

Cancer stem cells = experiment: Formation of CSCs under PAA steam (scent); assay type: cell-based; conditions: PAA steam (1 mM), 7 days
Description: Cancer stem cells were cultured in the presence of PAA steam (1 mM) and vehicle (methanol) for 7 days.
Then, formation of CSCs was analyzed by emission of PAA scent (FIG. 4C). As a result, PAA inhibited formation of CSCs. Volatile materials, i.e., PAA and phenylethanol, which are the most important for roses and tomatoes were derived from phenylalanine, as shown in FIG. 5A (FIG. 5A). In order to investigate whether or not phenylalanine-derived volatile materials, i.e., PAA and phenylethanol, and structural analogs (2- and 3-phenylpropionaldehydes) can inhibit formation of tumorspheres, these volatile materials were exposed to MCF-7.

mammospheres = experiment: Growth of mammospheres (cell counting); assay type: cell-based
Description: PAA inhibits growth of mammospheres. Mammospheres treated with PAA and DMSO for 2 days were separated into single cells and the equal number of cells were seeded on a 6 cm dish. 24 hours after seeding, the cells were counted. At 2- and 3-days, the cells were counted three times and plotted by the mean of the number. The data was represented by mean±standard deviation (SD). * means P<0.05, as compared to DMSO-treated control group;
Accordingly, for PAA, the levels of ROSs in breast cancer stem cells were investigated. As a result, PAA induced ROS activity in MDA-MB-231 cells (FIG. 7B). Next, in order to identify whether or not PAA inhibits proliferation of mammospheres, the mammospheres were treated with PAA and the cell number of mammospheres was counted.

[5] = test system: nuclear STAT3 proteins (phosphorylation); experiment: Western blotting of mammosphere nuclear proteins, pStat3; assay type: cell-based, human; conditions: MCF-7-derived mammospheres, compared to the control group
Description: (§4) The proteins isolated from mammospheres of PAA-treated MCF-7 were separated on 10% SDS-PAGE and transferred to a polyvinylidene difluoride membrane (Millipore, Bedford, Mass., USA). The membrane was blocked in 5% skim milk-containing PBS-Tween 20 (0.1%, v/v) for 30 minutes at room temperature. The blot was cultured at 4° C. in a blocking solution containing primary antibodies overnight. The used primary antibodies were as follows: Stat3, p65, Lamin B, and phospho-Stat3 (Cell Signaling, Beverly, Mass., USA). β-actin antibodies (Santa Cruz Biotechnology) were used as a loading control group. After washing with PBS-Tween 20 (0.1%, v/v), the blot was cultured in a horseradish peroxidase-conjugated secondary antibody and subjected to photosensitive treatment with a chemiluminescent detection kit (Santa Cruz Biotechnology).
(§5) In order to investigate cellular functions of PAA, STAT3 and NF-κB pathways were investigated in MCF-7-derived mammospheres subjected to treatment with PAA. As compared to the control group, PAA reduced phosphorylation of nuclear STAT3 proteins.

nuclear p65 = experiment: Western blotting of mammosphere nuclear proteins, p65; assay type: cell-based, human; conditions: MCF-7-derived mammospheres
Description: as §4, §5

HT-29 cells = experiment: MTS analysis in human colorectal cancer cells; assay type: cell-based; conditions: HT-29, MTS, PAA at a concentration up to 2 mM
Description: Anti-proliferation effects of PAA in human colorectal cancer cell lines were measured by MTS analysis.
Next, in order to investigate anti-proliferation effects of PAA on human colorectal cancer cell lines, i.e., HT-29 cells, after treatment with PAA at different concentrations, MTS analysis was conducted.

## O=CCc1ccccc1 [PAA, phenylacetaldehyde]
MCF-7 cells [1]
  PAA concentration at which growth of the cell line was concentration-dependently inhibited: ≥ 200 μm
MDA-MB-231 cells [2]
  PAA concentration at which growth of the cell line was concentration-dependently inhibited: ≥ 100 μm
MDA-MB-231 cells [3]
  migration of MDA-MB-231 cells: concentration-dependently inhibited
MCF-7 cells [4]; compared with Doxorubicin positive control group (10 mg/kg)
  tumor volume: less than that of Doxorubicin
MCF-7 cells [4]; compared with control group not treated with PAA
  tumor weight: less than control group
MCF-7 cells [4]; compared with control group not treated with PAA, breast fat pad injection
  tumor volume: less than that of a control group
Cancer stem cells
  formation of CSCs by emission of PAA scent: inhibited
mammospheres
  apoptosis of mammospheres: induced apoptosis
mammospheres; cell number counted after PAA treatment
  proliferation of mammospheres: greatly reduces
[5]
  phosphorylation of nuclear STAT3 proteins: reduced
Nuclear p65
  protein levels of nuclear p65: did not reduce
HT-29 cells
  growth (proliferation) of colorectal cancer cells: did not affect; also recorded: no significant proliferation inhibitory effects

Source: patent US11324706B2, “Composition for inhibiting growth of breast cancer stem cells containing phenylacetaldehyde” (JEJU NATIONAL UNIVERSITY INDUSTRY-ACADEMIC COOPERATION …, priority 2016, dated 2022)
